“And” between values parts separate entries of the source, which are not always exact repeats. Equal entries are not always repeated.
Experiments:
GLUT4 = GLUT4 protein in plasma membrane fraction of triceps surae muscle (immunoblot); assay type: in vivo, mouse; conditions: DS20060511 10 mg kg−1 or insulin 5 U kg−1 via inferior vena cava, 10 min; Fig. 2e
Experimental: The plasma membrane fraction of each skeletal muscle specimen was prepared as described previously[48],[49]. Briefly, the triceps surae muscle was homogenized in Buffer A (20 mM HEPES, 1 mM EDTA, 1 mM PMSF, and protease inhibitor) containing 250 mM sucrose on ice. The muscle homogenate was centrifuged at 2000 × g for 10 min at 4 °C to remove any unhomogenized muscle fibers. The supernatant was then centrifuged at 19,000 × g for 20 min at 4 °C. The pellet was resuspended in 3 mL Buffer A, layered on a 6 mL sucrose cushion (38% sucrose in Buffer A) and centrifuged at 100,000 × g for 60 min at 4 °C. The membrane fraction recovered on top of the sucrose cushion was resuspended in Buffer A and centrifuged at 40,000 × g for 20 min at 4 °C. The pellet was designated as the plasma membrane fraction and subjected to immunoblotting.
Phosphorylated or total protein of IRβ and IRS1 was resolved on 7% SDS-PAGE and analyzed using specific antibodies against IRβ, IRS1, and phosphotyrosine. […] Bound antibodies were detected with HRP-conjugated secondary antibodies using ECL detection reagents (GE Healthcare, Chicago, IL).

[1] = system: isolated skeletal muscles; experiment: 2-DG uptake with muscle contraction (5 Hz electrical stimulation) in isolated muscles; parameters: species or system mouse; conditions: for IC 2DOG: incubation 10 min
Experimental: The soleus or EDL muscle was removed from anesthetized mice (isoflurane anesthesia) that had been denied access to food overnight, and incubated with oxygenated (95% O2/5% CO2) Krebs-Henseleit Bicarbonate (KHB) buffer (118.1 mM NaCl, 4.7 mM KCl, 1.1 mM KH2PO4, 1.2 mM MgSO4, 2.5 mM CaCl2, and 25 mM NaHCO3, pH7.4) in the presence of 11.1 mM glucose at 37 °C. The muscle specimens were then treated with the indicated concentrations of the compounds in KHB buffer containing 11.1 mM glucose and 8 mM mannitol for 10 min at 37 °C. Thereafter, the muscles were rinsed with KHB buffer containing 8 mM mannitol and the compounds for 5 min at 37 °C. Lastly, the muscles were treated with the compounds in KHB buffer containing 1 mM 2-DG (with 0.3 μCi mL^−1 [^3H]-2-DG) and 8 mM mannitol (with 0.03 μCi mL^−1 [^14C]-mannitol) for 10 min at 37 °C. After the muscle specimens were washed, they were lysed with 1 N NaOH and neutralized with 1 N HCl. The ^14C- and ^3H-specific activities were counted with a liquid scintillation counter. The specific uptake of 2-DG was calculated by subtracting the nonspecific uptake of mannitol from the total 2-DG uptake. To investigate the effects of muscle contraction, muscle contraction was induced by electrical stimulation with 5 Hz (1 ms pulse duration, 100 V) for 10 min (SEN-5201, Nihon Koden, Tokyo, Japan).

C57BL/6 mice = experiment: In vivo [3H]-2-DG uptake into tissues during intraperitoneal GTT; parameters: species or system mouse; conditions: for count (dpm) 2DG / count (dpm) Total / dpm/mg 2DG / dpm/mg 2DGP / dpm/mg Total / Ratio: 30 mg/kg; for Ratio: 2DGP relative to vehicle
Experimental: Tissue glucose uptake was examined by measuring the uptake of [^3H]-2-DG during an intraperitoneal GTT as described previously[46],[47], with minor modifications. Mice that had been denied access to food overnight received oral administration of 30 mg kg^−1 of DS20060511 or vehicle 15 min prior to the glucose load. The mice then received intraperitoneal glucose administration (1 g kg^−1 containing 100 μCi kg^−1 [^3H]-2-DG as tracer), followed by quick removal of the tissues 60 min later. Tissue samples were homogenized in 0.5% perchloric acid and centrifuged, and the supernatants were neutralized with KOH. One aliquot of the supernatants was used for measuring the total radioactivity ([^3H]-2-DG and [^3H]-2-DG 6-phosphate ([^3H]-2-DGP)). A second aliquot of the supernatants was treated with 1 N Ba(OH)2 and 1 N ZnSO4 to remove [^3H]-2-DGP, and the [^3H]-2-DG count was measured. 2-DG uptake into the tissue, which is rapidly metabolized to 2-DGP in the tissue, was estimated by subtracting the count of [^3H]-2-DG from the total count. ^3H-specific activities were counted using a liquid scintillation counter.

[2] = DS20060511 1 μM, electrical stimulation +, muscles #1-3

SMILES: COc1ccc2c(C)c(C(=O)O)ccc2c1C1C2=C(CC(C)(C)CC2=O)OC2=C1C(=O)CC(C)(C)C2 [DS20060511]
- GLUT4 protein expression levels in the plasma membrane fraction of skeletal muscles (GLUT4): increased GLUT4 protein expression levels in the plasma membrane fraction
- IC 2DOG [1, 2]: 385 nmol/g and 372 nmol/g and 382 nmol/g
- Raio (2-DG uptake relative to unstimulated control) [1, 2]: 2.15 and 2.08 and 2.17
- IC 2DOG ([1]; DS20060511 10 μM, electrical stimulation +, muscles #1-3): 366 nmol/g and 368 nmol/g and 397 nmol/g
- 2-DG uptake with electrical muscle stimulation ([1]; vs electrical stimulation alone, Fig. 6a): elevated to a greater degree
- count (dpm) 2DG (C57BL/6 mice; Gastro.): 405 dpm and 366 dpm and 390 dpm
- count (dpm) Total (C57BL/6 mice; Gastro.): 1890 dpm and 1397 dpm and 1924 dpm
- dpm/mg 2DG (C57BL/6 mice; Gastro.): 63.3 dpm/mg and 57.2 dpm/mg and 60.9 dpm/mg
- dpm/mg 2DGP (C57BL/6 mice; Gastro.): 54.8 dpm/mg and 30.1 dpm/mg and 59.3 dpm/mg
- dpm/mg Total (C57BL/6 mice; Gastro.): 118.1 dpm/mg and 87.3 dpm/mg and 120.3 dpm/mg
- Ratio (C57BL/6 mice; Gastro.): 4.35 and 2.39 and 4.70
- count (dpm) 2DG (C57BL/6 mice; Heart): 398 dpm and 423 dpm and 382 dpm
- count (dpm) Total (C57BL/6 mice; Heart): 1218 dpm and 1277 dpm and 1201 dpm
- dpm/mg 2DG (C57BL/6 mice; Heart): 62.2 dpm/mg and 66.1 dpm/mg and 59.7 dpm/mg
- dpm/mg 2DGP (C57BL/6 mice; Heart): 39.3 dpm/mg and 40.3 dpm/mg and 40.4 dpm/mg
- dpm/mg Total (C57BL/6 mice; Heart): 101.5 dpm/mg and 106.4 dpm/mg and 100.1 dpm/mg
- Ratio (C57BL/6 mice; Heart): 0.90 and 0.93
- count (dpm) 2DG (C57BL/6 mice; Soleus): 214 dpm and 169 dpm and 183 dpm
- dpm/mg 2DG (C57BL/6 mice; Soleus): 100.3 dpm/mg and 79.2 dpm/mg and 85.8 dpm/mg
- dpm/mg Total (C57BL/6 mice; Soleus): 286.0 dpm/mg and 229.5 dpm/mg and 201.0 dpm/mg
- count (dpm) Total (C57BL/6 mice; Soleus, 30 mg/kg po, 60 min during ip GTT): 572 dpm and 459 dpm and 402 dpm
- dpm/mg 2DGP (C57BL/6 mice; Soleus, 2-DG uptake = Total minus 2DG): 185.7 dpm/mg and 150.3 dpm/mg and 115.2 dpm/mg
- Ratio (C57BL/6 mice; Soleus): 4.96 and 4.02 and 3.08
- count (dpm) 2DG (C57BL/6 mice; WAT): 697 dpm and 877 dpm and 734 dpm
- count (dpm) Total (C57BL/6 mice; WAT): 1450 dpm and 1799 dpm and 1511 dpm
- dpm/mg 2DG (C57BL/6 mice; WAT): 34.9 dpm/mg and 43.9 dpm/mg and 36.7 dpm/mg
- dpm/mg 2DGP (C57BL/6 mice; WAT): 13.5 dpm/mg and 16.1 dpm/mg and 13.7 dpm/mg
- dpm/mg Total (C57BL/6 mice; WAT): 48.3 dpm/mg and 60.0 dpm/mg and 50.4 dpm/mg
- Ratio (C57BL/6 mice; WAT): 0.99 and 1.18 and 1.00
- uptake of [3H]-2-DG (in words) (C57BL/6 mice; soleus and gastrocnemius muscles, ip GTT, 30 mg kg−1): significant increase

From publication PMC8379256, “A xanthene derivative, DS20060511, attenuates glucose intolerance by inducing skeletal muscle-specific GLUT4 translocation in mice” (Communications Biology, 2021)
